Measured values taken from US20240308968A1, “FUNGICIDAL SUBSTITUTED HETEROCYCLES” (FMC Corporation, priority 2021, published 2024).

Legend:
Format in all cases: in vivo
Conditions in all cases: 100 = 100% disease control, 0 = no control
Zymoseptoria tritici = assay: Test A: preventive spray on wheat seedlings, wheat leaf blotch disease rating
Text: (§1) General protocol for preparing test suspensions for Tests A-F: the test compounds were first dissolved in acetone in an amount equal to 3% of the final volume and then suspended at the desired concentration (in ppm) in acetone and purified water (50/50 mix by volume) containing 50 to 250 ppm of the surfactant PEG400 (polyhydric alcohol esters). The resulting test suspensions were then used in Tests A-F.
The test solution was sprayed to the point of run-off on wheat seedlings. The following day the seedlings were inoculated with a spore suspension of Zymoseptoria tritici (the causal agent of wheat leaf blotch) and incubated in a saturated atmosphere at 24° C. for 48 h, and then moved to a growth chamber at 20° C. for 17 days, after which time disease ratings were made. […]

[1] = tested on: Puccinia recondita f. sp. Tritici; assay: Test B: preventive spray on wheat seedlings, wheat leaf rust disease rating
Text: as §1
The test solution was sprayed to the point of run-off on wheat seedlings. The following day the seedlings were inoculated with a spore suspension of Puccinia recondita f. sp. Tritici (the causal agent of wheat leaf rust) and incubated in a saturated atmosphere at 20° C. for 24 h, and then moved to a growth chamber at 20° C. for 7 days, after which time disease ratings were made.
(§2) The test suspension was sprayed to the point of run-off on tomato seedlings. The following day the seedlings were inoculated with a spore suspension of Alternaria solani (the causal agent of tomato early blight) and incubated in a saturated atmosphere at 27° C. for 48 h, and then moved to a growth chamber at 20° C. for 3 days, after which time visual disease ratings were made. A rating of 100 indicates 100% disease control and a rating of 0 indicates no disease control (relative to the controls). A dash (-) indicates the compound was not tested.

[2] = tested on: Blumeria graminis f. sp. Tritici; assay: Test C: preventive spray on wheat seedlings, wheat powdery mildew disease rating
Text: as §1
The test suspension was sprayed to the point of run-off on wheat seedlings. The following day the seedlings were inoculated with a spore dust of Blumeria graminis f. sp. Tritici, (also known as Erysiphe graminis f. sp. Tritici, the causal agent of wheat powdery mildew) and incubated in a growth chamber at 20° C. for 8 days, after which time visual disease ratings were made.
as §2

Phakopsora pachyrhizi = assay: Test D: preventive spray on soybean seedlings, Asian soybean rust disease rating
Text: as §1
The test solution was sprayed to the point of run-off on soybean seedlings. The following day the seedlings were inoculated with a spore suspension of Phakopsora pachyrhizi (the causal agent of Asian soybean rust) and incubated in a saturated atmosphere at 22° C. for 24 h and then moved to a growth chamber at 22° C. for 8 days, after which time visual disease ratings were made.
as §2

Botrytis cinerea = assay: Test E: preventive spray on tomato seedlings, tomato Botrytis disease rating
Text: as §1
The test suspension was sprayed to the point of run-off on tomato seedlings. The following day the seedlings were inoculated with a spore suspension of Botrytis cinerea (the causal agent of tomato Botrytis) and incubated in a saturated atmosphere at 20° C. for 48 h, and then moved to a growth chamber at 24° C. for 3 days, after which time visual disease ratings were made.
as §2

Alternaria solani = assay: Test F: preventive spray on tomato seedlings, tomato early blight disease rating
Text: as §1, §2

[3] = Zymoseptoria tritici, 456 h, 50 ppm
[4] = Puccinia recondita, 192 h, 50 ppm
[5] = Blumeria graminis, 192 h, 50 ppm
[6] = Phakopsora pachyrhizi, 216 h, 50 ppm
[7] = Botrytis cinerea, 120 h, 50 ppm
[8] = Alternaria solani, 120 h, 50 ppm

COc1ccc(Cl)c(-n2nc(C)c(=O)c(Br)c2-c2ccc(F)cc2Cl)c1 [Compound 124, 5-bromo-1-(2-chloro-5-methoxyphenyl)-6-(2-chloro-4-fluorophenyl)-3-methyl-4(1)-pyridazinone]
Test A disease control rating (Zymoseptoria tritici; 50 ppm): 100%
Test B disease control rating ([1]; 50 ppm): 100%
Test C disease control rating ([2]; 50 ppm): 100%
Test D disease control rating (Phakopsora pachyrhizi; 50 ppm): 100%
Test E disease control rating (Botrytis cinerea; 50 ppm): 99%
Test F disease control rating (Alternaria solani; 50 ppm): 100%

Cc1ccncc1-c1nn(C)c(=O)c(Cl)c1-c1ccc(F)cc1Cl [Compound 4, 4-chloro-5-(2-chloro-4-fluorophenyl)-2-methyl-6-(4-methyl-3-pyridinyl)-3(2H)-pyridazinone]
pest or weed control at 50 ppm (Zymoseptoria tritici; [3]): 100%
pest or weed control at 50 ppm [1, 4]: 89%
pest or weed control at 50 ppm [2, 5]: 89%
pest or weed control at 50 ppm (Phakopsora pachyrhizi; [6]): 38%
pest or weed control at 50 ppm (Botrytis cinerea; [7]): 65%
pest or weed control at 50 ppm (Alternaria solani; [8]): 70%

CCOC(=O)c1nn(-c2cc(OC)ccc2Cl)c(-c2ccc(F)cc2F)c(C(=O)OCC)c1=O [Compound 81]
Test A disease control rating (Zymoseptoria tritici; 50 ppm): 0%
Test B disease control rating ([1]; 50 ppm): 19%
Test C disease control rating ([2]; 50 ppm): 0%
Test D disease control rating (Phakopsora pachyrhizi; 50 ppm): 0%
Test E disease control rating (Botrytis cinerea; 50 ppm): 0%
Test F disease control rating (Alternaria solani; 50 ppm): 0%

COc1ccc(Cl)c(-c2nn(C)c(=O)c(C)c2-c2cnccc2C)c1 [Compound 21, 6-(2-chloro-5-methoxyphenyl)-2,4-dimethyl-5-(4-methyl-3-pyridinyl)-3(2H)-pyridazinone]
pest or weed control at 50 ppm (Zymoseptoria tritici; [3]): 54%
pest or weed control at 50 ppm [1, 4]: 68%
pest or weed control at 50 ppm [2, 5]: 86%
pest or weed control at 50 ppm (Phakopsora pachyrhizi; [6]): 25%
pest or weed control at 50 ppm (Botrytis cinerea; [7]): 96%
pest or weed control at 50 ppm (Alternaria solani; [8]): 0%

COc1cc(OC)cc(-c2nc(C)nc(Cl)c2-c2ccc(F)cc2Cl)c1 [Compound 52]
Test A disease control rating (Zymoseptoria tritici; 250 ppm): 100%
Test B disease control rating ([1]; 250 ppm): 89%
Test C disease control rating ([2]; 250 ppm): 99%
Test D disease control rating (Phakopsora pachyrhizi; 250 ppm): 13%
Test E disease control rating (Botrytis cinerea; 250 ppm): 94%
Test F disease control rating (Alternaria solani; 250 ppm): 26%

COc1cc(OC)c(Br)c(-c2nc(C)nc(C)c2-c2ccc(F)cc2Cl)c1 [Compound 59, 4-(2-bromo-3,5-dimethoxyphenyl)-2,6-dimethyl-5-(2-chloro-4-fluorophenyl)pyrimidine]
pest or weed control at 50 ppm (Zymoseptoria tritici; [3]): 100%
pest or weed control at 50 ppm [1, 4]: 100%
pest or weed control at 50 ppm [2, 5]: 100%
pest or weed control at 50 ppm (Phakopsora pachyrhizi; [6]): 100%
pest or weed control at 50 ppm (Botrytis cinerea; [7]): 88%
pest or weed control at 50 ppm (Alternaria solani; [8]): 98%

Cc1c(-c2ccc(F)cc2Cl)c(-c2ccsc2Cl)nn(C)c1=O [Compound 7, 5-(2-chloro-4-fluorophenyl)-6-(2-chloro-3-thienyl)-2,4-dimethyl-3(2H)-pyridazinone]
pest or weed control at 50 ppm (Zymoseptoria tritici; [3]): 99%
pest or weed control at 50 ppm [1, 4]: 100%
pest or weed control at 50 ppm [2, 5]: 99%
pest or weed control at 50 ppm (Phakopsora pachyrhizi; [6]): 100%
pest or weed control at 50 ppm (Botrytis cinerea; [7]): 97%
pest or weed control at 50 ppm (Alternaria solani; [8]): 99%

COc1cc(OC)cc(-n2nc(CF)c(=O)c(C)c2-c2ccc(F)cc2Cl)c1 [Compound 90]
Test A disease control rating (Zymoseptoria tritici; 50 ppm): 99%
Test B disease control rating ([1]; 50 ppm): 100%
Test C disease control rating ([2]; 50 ppm): 97%
Test D disease control rating (Phakopsora pachyrhizi; 50 ppm): 100%
Test E disease control rating (Botrytis cinerea; 50 ppm): 99%
Test F disease control rating (Alternaria solani; 50 ppm): 99%

CCOC(=O)c1nn(-c2cc(OC)cc(OC)c2Cl)c(-c2ccc(F)cc2F)c(C(=O)OCC)c1=O [Compound 127]
Test A disease control rating (Zymoseptoria tritici; 50 ppm): 0%
Test B disease control rating ([1]; 50 ppm): 41%
Test C disease control rating ([2]; 50 ppm): 0%
Test D disease control rating (Phakopsora pachyrhizi; 50 ppm): 0%
Test E disease control rating (Botrytis cinerea; 50 ppm): 0%
Test F disease control rating (Alternaria solani; 50 ppm): 0%

COc1ccc(Cl)c(-n2nc(Cl)c(=O)c(Cl)c2-c2ccc(F)cc2Cl)c1 [Compound 103]
Test A disease control rating (Zymoseptoria tritici; 50 ppm): 100%
Test B disease control rating ([1]; 50 ppm): 100%
Test C disease control rating ([2]; 50 ppm): 97%
Test D disease control rating (Phakopsora pachyrhizi; 50 ppm): 100%
Test E disease control rating (Botrytis cinerea; 50 ppm): 100%
Test F disease control rating (Alternaria solani; 50 ppm): 99%

COc1cc(OC)cc(-n2nc(CO)c(=O)c(C)c2-c2ccc(F)cc2Cl)c1 [Compound 91]
Test A disease control rating (Zymoseptoria tritici; 250 ppm): 0%
Test B disease control rating ([1]; 250 ppm): 99%
Test C disease control rating ([2]; 250 ppm): 0%
Test D disease control rating (Phakopsora pachyrhizi; 250 ppm): 75%
Test E disease control rating (Botrytis cinerea; 250 ppm): 79%
Test F disease control rating (Alternaria solani; 250 ppm): 17%

COc1cc(OC)cc(-n2c(-c3ccc(F)cc3Cl)cc(=O)n(C)c2=O)c1 [Compound 34, 6-(2-chloro-4-fluorophenyl)-1-(3,5-dimethoxyphenyl)-3-methyl-2,4(1H,3H)-pyrimidinedione]
pest or weed control at 250 ppm (Zymoseptoria tritici; Zymoseptoria tritici, 456 h, 250 ppm): 25%
pest or weed control at 250 ppm ([1]; Puccinia recondita, 192 h, 250 ppm): 86%
pest or weed control at 250 ppm ([2]; Blumeria graminis, 192 h, 250 ppm): 0%
pest or weed control at 250 ppm (Phakopsora pachyrhizi; Phakopsora pachyrhizi, 216 h, 250 ppm): 64%
pest or weed control at 250 ppm (Botrytis cinerea; Botrytis cinerea, 120 h, 250 ppm): 63%
pest or weed control at 250 ppm (Alternaria solani; Alternaria solani, 120 h, 250 ppm): 0%

COc1ccc(Cl)c(-c2nn(C)c(=O)c(C)c2-c2ccsc2C)c1 [Compound 18]
Test A disease control rating (Zymoseptoria tritici; 50 ppm): 96%
Test B disease control rating ([1]; 50 ppm): 92%
Test C disease control rating ([2]; 50 ppm): 93%
Test D disease control rating (Phakopsora pachyrhizi; 50 ppm): 13%
Test E disease control rating (Botrytis cinerea; 50 ppm): 97%
Test F disease control rating (Alternaria solani; 50 ppm): 0%

COc1cc(OC)cc(-n2c(-c3ccc(F)cc3Cl)c(C)c(=O)n(C)c2=O)c1 [Compound 39, 6-(2-chloro-4-fluorophenyl)-1-(3,5-dimethoxyphenyl)-3,5-dimethyl-2,4(1H,3H)-pyrimidinedione]
pest or weed control at 50 ppm (Zymoseptoria tritici; [3]): 0%
pest or weed control at 50 ppm [1, 4]: 100%
pest or weed control at 50 ppm [2, 5]: 98%
pest or weed control at 50 ppm (Phakopsora pachyrhizi; [6]): 73%
pest or weed control at 50 ppm (Botrytis cinerea; [7]): 90%
pest or weed control at 50 ppm (Alternaria solani; [8]): 9%

COc1ccc(-c2c(Br)c(=O)c(C)nn2-c2cc(OC)ccc2Cl)c(Cl)c1 [Compound 130]
Test A disease control rating (Zymoseptoria tritici; 50 ppm): 100%
Test B disease control rating ([1]; 50 ppm): 100%
Test C disease control rating ([2]; 50 ppm): 99%
Test D disease control rating (Phakopsora pachyrhizi; 50 ppm): 98%
Test E disease control rating (Botrytis cinerea; 50 ppm): 99%
Test F disease control rating (Alternaria solani; 50 ppm): 100%

Cn1nc(-c2ccoc2)c(-c2c(F)cccc2F)cc1=O [Compound 3]
Test A disease control rating (Zymoseptoria tritici; 250 ppm): 0%
Test B disease control rating ([1]; 250 ppm): 0%
Test C disease control rating ([2]; 250 ppm): 0%
Test D disease control rating (Phakopsora pachyrhizi; 250 ppm): 38%
Test E disease control rating (Botrytis cinerea; 250 ppm): 0%
Test F disease control rating (Alternaria solani; 250 ppm): 0%

COc1ccc(Cl)c(-n2nc(NC(C)=O)c(=O)cc2-c2ccc(F)cc2Cl)c1 [Compound 135]
Test A disease control rating (Zymoseptoria tritici; 50 ppm): 41%
Test B disease control rating ([1]; 50 ppm): 89%
Test C disease control rating ([2]; 50 ppm): 0%
Test D disease control rating (Phakopsora pachyrhizi; 50 ppm): 0%
Test E disease control rating (Botrytis cinerea; 50 ppm): 94%
Test F disease control rating (Alternaria solani; 50 ppm): 0%

Cc1c(-c2ccc(F)cc2Cl)c(-c2ccsc2Br)nn(C)c1=O [Compound 6]
Test A disease control rating (Zymoseptoria tritici; 50 ppm): 100%
Test B disease control rating ([1]; 50 ppm): 100%
Test C disease control rating ([2]; 50 ppm): 99%
Test D disease control rating (Phakopsora pachyrhizi; 50 ppm): 78%
Test E disease control rating (Botrytis cinerea; 50 ppm): 91%
Test F disease control rating (Alternaria solani; 50 ppm): 99%

COc1cc(-n2nc(CO)c(=O)c(C)c2-c2ccc(F)cc2F)cc(OC)c1Cl [Compound 32, 1-(4-chloro-3,5-dimethoxyphenyl)-6-(2,4-difluorophenyl)-3-(hydroxymethyl)-5-methyl-4(1H)-pyridazinone]
pest or weed control at 50 ppm (Zymoseptoria tritici; [3]): 0%
pest or weed control at 50 ppm [1, 4]: 0%
pest or weed control at 50 ppm [2, 5]: 0%
pest or weed control at 50 ppm (Phakopsora pachyrhizi; [6]): 25%
pest or weed control at 50 ppm (Botrytis cinerea; [7]): 0%
pest or weed control at 50 ppm (Alternaria solani; [8]): 0%
